Laboratory results as given in PubChem BioAssay AID1963872 (Molecular Pharmacology Branch, DTP, NCI, 2024).

Test system: KRAS patient-derived spheroids with HUVEC/MSC, viability
Assay: Anticancer human tumor 519858-162-T-J1-PDC patient-derived colon adenocarcinoma cell line growth inhibition [KRAS2]
Settings: for IC50: curve of first compound; for viability, T/C: stronger effect = lower value
Outline: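 KRAS-mutant tumor cells were grown as spheroids with HUVEC endothelial cells and human MSCs as stroma. Targeted agents were tested alone and with KRAS pathway inhibitors. Doses started at or near clinical Cmax, or 10 microM, descending half-log.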

[1] = second compound 0.1 µM, first compound 0.0316 µM
[2] = second compound 0.1 µM, first compound 0.1 µM
[3] = second compound 0.1 µM, first compound 0.316 µM
[4] = second compound 0.1 µM, first compound 1 µM
[5] = second compound 0.1 µM, first compound 3.16 µM
[6] = second compound 0.316 µM, first compound 0.0316 µM
[7] = second compound 0.316 µM, first compound 0.1 µM
[8] = second compound 0.316 µM, first compound 0.316 µM
[9] = second compound 0.316 µM, first compound 1 µM
[10] = second compound 0.316 µM, first compound 3.16 µM
[11] = second compound 1 µM, first compound 0.0316 µM
[12] = second compound 1 µM, first compound 0.1 µM
[13] = second compound 1 µM, first compound 0.316 µM
[14] = second compound 1 µM, first compound 1 µM
[15] = second compound 1 µM, first compound 3.16 µM
[16] = second compound 3.16 µM, first compound 0.0316 µM
[17] = second compound 3.16 µM, first compound 0.1 µM
[18] = second compound 3.16 µM, first compound 0.316 µM
[19] = second compound 3.16 µM, first compound 1 µM
[20] = second compound 3.16 µM, first compound 3.16 µM
[21] = second compound 10 µM, first compound 0.0316 µM
[22] = second compound 10 µM, first compound 0.1 µM
[23] = second compound 10 µM, first compound 0.316 µM
[24] = second compound 10 µM, first compound 1 µM
[25] = second compound 10 µM, first compound 3.16 µM
[26] = second compound 0.1 µM, first compound 0.01 µM
[27] = second compound 0.316 µM, first compound 0.01 µM
[28] = second compound 1 µM, first compound 0.01 µM
[29] = second compound 3.16 µM, first compound 0.01 µM
[30] = second compound 10 µM, first compound 0.01 µM
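Also: compound exposure lasted seven days before readout.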
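For viability, T/C in this document: 100% = DMSO vehicle control viability.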

Structure (SMILES): CC1(C)CCC(CN2CCN(c3ccc(C(=O)NS(=O)(=O)c4ccc(NCC5CCOCC5)c([N+](=O)[O-])c4)c(Oc4cnc5[nH]ccc5c4)c3)CC2)=C(c2ccc(Cl)cc2)C1 + C=CC(=O)N1CCN(c2nc(=O)n(-c3c(C)ccnc3C(C)C)c3nc(-c4c(O)cccc4F)c(F)cc23)C(C)C1
- IC50 (second compound 0.1 µM): 7.91 µM
- IC50 (second compound 0.316 µM): > 10 µM
- IC50 (second compound 1 µM): > 10 µM
- IC50 (second compound 3.16 µM): > 10 µM
- IC50 (second compound 10 µM): > 10 µM
- viability, T/C [1]: 83.4%
- viability, T/C [2]: 102%
- viability, T/C [3]: 88%
- viability, T/C [4]: 81.2%
- viability, T/C [5]: 91.6%
- viability, T/C (second compound 0.1 µM, first compound 10 µM): 39.9%
- viability, T/C [6]: 93.9%
- viability, T/C [7]: 89.1%
- viability, T/C [8]: 68.6%
- viability, T/C [9]: 79.4%
- viability, T/C [10]: 92.2%
- viability, T/C (second compound 0.316 µM, first compound 10 µM): 61.5%
- viability, T/C [11]: 90.9%
- viability, T/C [12]: 73.7%
- viability, T/C [13]: 94.7%
- viability, T/C [14]: 96.6%
- viability, T/C [15]: 84.6%
- viability, T/C (second compound 1 µM, first compound 10 µM): 65.6%
- viability, T/C [16]: 63.3%
- viability, T/C [17]: 96.4%
- viability, T/C [18]: 81.6%
- viability, T/C [19]: 64.1%
- viability, T/C [20]: 84.4%
- viability, T/C (second compound 3.16 µM, first compound 10 µM): 61.3%
- viability, T/C [21]: 77.8%
- viability, T/C [22]: 84.3%
- viability, T/C [23]: 58.2%
- viability, T/C [24]: 81.9%
- viability, T/C [25]: 56.3%
- viability, T/C (second compound 10 µM, first compound 10 µM): 70.6%

Structure (SMILES): CC1COCCN1c1cc(-c2ccnn2C)c2ccnc(-c3ccn[nH]3)c2n1 (stereo not given) + CNCc1ccccc1-c1csc(C(C)Nc2nc(C)nc3cc(OC)c(OC)cc23)c1
- IC50 (second compound 0.1 µM): 1.76 µM
- IC50 (second compound 0.316 µM): 1.04 µM
- IC50 (second compound 1 µM): 1.43 µM
- IC50 (second compound 3.16 µM): 0.568 µM
- IC50 (second compound 10 µM): < 0.01 µM
- viability, T/C [26]: 76.8%
- viability, T/C [1]: 90.3%
- viability, T/C [2]: 62.7%
- viability, T/C [3]: 82.5%
- viability, T/C [4]: 59.9%
- viability, T/C [5]: 39.8%
- viability, T/C [27]: 95%
- viability, T/C [6]: 62.8%
- viability, T/C [7]: 83.2%
- viability, T/C [8]: 68.6%
- viability, T/C [9]: 48.7%
- viability, T/C [10]: 28.4%
- viability, T/C [28]: 70.9%
- viability, T/C [11]: 89.8%
- viability, T/C [12]: 95%
- viability, T/C [13]: 79.7%
- viability, T/C [14]: 58.8%
- viability, T/C [15]: 30.6%
- viability, T/C [29]: 64.1%
- viability, T/C [16]: 50.8%
- viability, T/C [17]: 60%
- viability, T/C [18]: 70.5%
- viability, T/C [19]: 39%
- viability, T/C [20]: 20.4%
- viability, T/C [30]: 0.21%
- viability, T/C [21]: 0.21%
- viability, T/C [22]: 8.05%
- viability, T/C [23]: 0.31%
- viability, T/C [24]: 0.32%
- viability, T/C [25]: 0.28%

Structure (SMILES): CCN1CCN(Cc2ccc(Nc3ncc(F)c(-c4cc(F)c5nc(C)n(C(C)C)c5c4)n3)nc2)CC1 + CC1OCC2(CCN(c3cnc(Sc4ccnc(N)c4Cl)c(N)n3)CC2)C1N
- IC50 (second compound 0.1 µM): 0.735 µM
- IC50 (second compound 0.316 µM): > 1 µM
- IC50 (second compound 1 µM): 0.162 µM
- IC50 (second compound 3.16 µM): < 0.00316 µM
- IC50 (second compound 10 µM): 0.0478 µM
- viability, T/C (second compound 0.1 µM, first compound 0.00316 µM): 80.7%
- viability, T/C [26]: 79%
- viability, T/C [1]: 103%
- viability, T/C [2]: 60.1%
- viability, T/C [3]: 81.7%
- viability, T/C [4]: 38.7%
- viability, T/C (second compound 0.316 µM, first compound 0.00316 µM): 59.2%
- viability, T/C [27]: 63.5%
- viability, T/C [6]: 69.1%
- viability, T/C [7]: 63.2%
- viability, T/C [8]: 64.2%
- viability, T/C [9]: 40.6%
- viability, T/C (second compound 1 µM, first compound 0.00316 µM): 49.9%
- viability, T/C [28]: 67.8%
- viability, T/C [11]: 75.5%
- viability, T/C [12]: 49.4%
- viability, T/C [13]: 43.1%
- viability, T/C [14]: 24.3%
- viability, T/C (second compound 3.16 µM, first compound 0.00316 µM): 49.7%
- viability, T/C [29]: 40.7%
- viability, T/C [16]: 57.9%
- viability, T/C [17]: 41.7%
- viability, T/C [18]: 30.9%
- viability, T/C [19]: 29.4%
- viability, T/C (second compound 10 µM, first compound 0.00316 µM): 68.1%
- viability, T/C [30]: 57.4%
- viability, T/C [21]: 48.2%
- viability, T/C [22]: 50%
- viability, T/C [23]: 39.9%
- viability, T/C [24]: 29.2%

Structure (SMILES): CC1COCCN1c1cc(-c2ccnn2C)c2ccnc(-c3ccn[nH]3)c2n1 (stereo not given) + CC1OCC2(CCN(c3cnc(Sc4ccnc(N)c4Cl)c(N)n3)CC2)C1N
- IC50 (second compound 0.1 µM): 2.48 µM
- IC50 (second compound 0.316 µM): 2.28 µM
- IC50 (second compound 1 µM): 2.1 µM
- IC50 (second compound 3.16 µM): > 3.16 µM
- IC50 (second compound 10 µM): > 3.16 µM
- viability, T/C [26]: 97.8%
- viability, T/C [1]: 89.2%
- viability, T/C [2]: 72.5%
- viability, T/C [3]: 88.4%
- viability, T/C [4]: 90.1%
- viability, T/C [5]: 40%
- viability, T/C [27]: 87%
- viability, T/C [6]: 75.6%
- viability, T/C [7]: 87.3%
- viability, T/C [8]: 80.4%
- viability, T/C [9]: 77.7%
- viability, T/C [10]: 39.1%
- viability, T/C [28]: 95.4%
- viability, T/C [11]: 75.3%
- viability, T/C [12]: 82.2%
- viability, T/C [13]: 75.8%
- viability, T/C [14]: 67.3%
- viability, T/C [15]: 41.1%
- viability, T/C [29]: 83.4%
- viability, T/C [16]: 83.9%
- viability, T/C [17]: 65.8%
- viability, T/C [18]: 70.4%
- viability, T/C [19]: 60.6%
- viability, T/C [20]: 53.9%
- viability, T/C [30]: 81.7%
- viability, T/C [21]: 74.2%
- viability, T/C [22]: 61.6%
- viability, T/C [23]: 47.7%
- viability, T/C [24]: 51%
- viability, T/C [25]: 53.3%
